Laboratory results reported in patent publication US10722491B2, “Phenol compound and combination of same with a benzodiazepine fused to 1,4-dihydropyridine for treating diseases of the central nervous and vascular systems” (UNIVERSIDAD DE LA HABANA, priority 2016, dated 2020).

Legend:
[1] = KM-34 capacity to reduce DPPH radicals; assay type: biochemical
Protocol: FIG. 1. Percentage reduction of DPPH (100 μM) by KM-34 (5-400 μM) was determined by changing in the absorbance at 550 nm from a target containing only DPPH and vehicle (zero concentration of KM −34 or AA), after 30 minutes of reaction. Values are expressed as the mean ± SD (n=3). *P<0.05 with respect to the vehicle.
One of the most commonly used methods to estimate antioxidant activity is to evaluate the ability of different compounds to reduce DPPH radicals, which can be determined spectrophotometrically (Brand-Williams et al., 1995). […] Electron delocalization causes the intense violet coloration of the DPPH radical form when it is prepared in ethanol solution (Molyneux et al., 2004).
The IC 50 value obtained for KM was approximately 2.4 times lower than that obtained for ascorbic acid (AA) used as the reference compound.

[2] = tested on: PC12 cells; assay: Cytoprotection against L-glutamate damage in PC12 cells (MTT); assay type: cell-based; details: 50 mM L-glutamate
Protocol: FIG. 6. Cytoprotective effect of KM-34 10001-10 HM) against damage induced by L-glutamate (50 mmol/L) in cultures of PC12 cells. Viability (% live cells) was determined by the MTT assay. Cells were seeded at a density of 5×10^5 cells/mL in a 96-well plate. KM-34 was added simultaneously to the addition of L-glutamate. The culture was then allowed to incubate at 37° C, […] and 5% CO 2 for 4 hours. After this time the supernatant was removed and the cells were incubated with 20 μg of MTT for an additional 2 hours and the absorbance at 450 nm was measured with reference to 630 nm. The results are expressed as percentage of live cells relative to the control (cells without damage, 100% of live cells. * Represents significant differences (p<0.05) with respect to the L-glutamate control.
FIG. 14. The survival rate for […] administered 50 mM Glutamate is shown. The control group was not administered 50 mM Glutamate. The remaining four groups were administered 50 mM Glutamate. The “Glu 50 mM” group was not administered any compounds of the invention. The “JM 0.01 μM” group was administered 0.01 μM JM-20. The “KM 0.01 μM” group was administered 0.01 μM KM-34. The “JM 0.01 μM+KM 0.01 μM” group was administered 0.01 μM JM-20 and 0.01 μM KM-34.
At values above 1 μM KM-34, the cytoprotection response is greater than 80%.

[3] = tested on: rat brain homogenate; assay: Spontaneous or Fe3+/AA-induced lipid peroxidation (POL) in rat brain homogenate; assay type: biochemical; details: 37° C 1 hour, MDA
Protocol: FIG. 5. Effects of KM-34 (0.01-100 μM) on spontaneous lipid peroxidation and e induced by 100 mM FeCl3 and 100 mM AA. The control contains absolute ethanol instead of KM-34. The samples were incubated at 37° C for 1 hour and then the MDA levels were quantified by thiobarbituric acid (ATB) and the absorbance was determined at 532 nm. Values are expressed as the mean ± SD (n=3). *P<0.05 with respect to the control.
The brain homegenate is rich in phospholipids, which undergo spontaneous or induced autoxidation by the presence of FeCl3 and AA, where the latter is oxidized at the expense of the metal being reduced and thus the ion is available to catalyze the Fenton-Habber reaction-Weiss (Hiroi et al., 2005; Kooncumchoo, 2005).

[4] = tested on: PC12 cells; assay: Cytoprotection against H2O2 damage in PC12 cells (MTT); assay type: cell-based
Protocol: FIG. 7. Cytoprotective effect of KM-34 (1-100 μM) against damage induced by H2O2 (150 μM) in cultures of PC12 cells. Viability (% live cells) was determined by the MTT assay. Cells were seeded at a density of 5×10^5 cells/mL in a 96-well plate. The KM-34 was added simultaneously to the addition of the H2O2 mixture. The culture was then allowed to incubate at 37° C, […] and 5% CO 2 for 4 hours. After this time the supernatant was removed and the cells were incubated with 20 μg of MTT for an additional 2 hours and the absorbance at 450 nm was measured with reference to 630 nm. The results are expressed as percentage of live cells relative to the control (undamaged cells, 100% live cells). The * represents significant differences (p<0.05) with respect to the H2O2 control.
FIG. 15. The survival rate for […] administered 150 μM H2O2 is shown. The control group was not administered 150 μM H2O2. The remaining four groups were administered 150 μM H2O2. The “H2O2 150 μM” group was not administered any compounds of the invention. The “JM 1 μM” group was administered 1 μM JM-20. The “KM 0.1 μM” group was administered 0.1 μM KM-34. The “JM 1 μM+KM 0.1 μM” group was administered 1 μM JM-20 and 0.1 μM KM-34.
H2O2 is formed in vivo spontaneously or enzymatically. At low concentrations this may be poorly reactive, however at high concentrations it may interact with and generate inactivation of the energy generating systems of the cells. In addition H2O2 is able to oxidize —SH groups of proteins and cause DNA strand rupture. Their most damaging effect is the formation of catalyzed transition metals by the Fenton-Habber-Weiss reaction (Martinez, 2005). This is based on the use of H2O2 in this test, with the aim of observing if the KM-34 is capable of reversing the damages caused by the chemical agent.

[5] = Spectrophotometric evidence of interactions between KM-34 and Fe2+; assay type: physicochemical; details: 100 μM KM-34; FeCl2 50, 100 and 200 μM; pH 7.4
Protocol: FIG. 4. Maximum absorption data on UV-VIS (200-500 nm) of the 100 μM KM-34 in a mixture of 10 mM phosphate buffer (KH2PO4/ KOH) pH 7.4 and absolute ethanol 14:1 (v:v) and The absorbance in the presence of FeCl2 (50, 100 and 200 μM) dissolved in 10mM HCL.
In order to verify the existence of possible interactions between KM-34 and Fe2+ (through modifications in their spectra), the following results were obtained:
This could indicate possible interactions between Fe2+ and KM-34 where the ion is stabilized at Fe3+ by unsaturated ligands due to the stabilization of the larger crystalline field from an electron configuration d6 (Fe2+) to a d5 (Fe3+) (Hider et al., 1981, Hider et al., 1983). This justifies the response obtained in the oxidative degradation test of DR where it was observed that the KM-34 in these conditions seems to act more as a coordinator of Fe2+ than as a .OH scavenger.

CC1(C)OC(=O)C(=Cc2ccc(O)c(O)c2)C(=O)O1 [KM-34, 5-[(3,4-dihydroxyphenyl)methylidene]-2,2-dimethyl-1,3-dioxane-4,6-dione]
IC50 ([1]; DPPH 100 μM, 30 minutes of reaction, read-out: IC50, reduction of DPPH radicals): 16.3 µM
IC50 of KM relative to ascorbic acid (times lower) ([1]; DPPH, AA as reference compound): approximately 2.4 times
Concentration giving significant (p<0.05) inhibition of the DPPH radical vs vehicle ([1]; after 30 minutes of reaction): higher than 5 μM
DPPH reduction response ([1]; at concentrations above 50 μM): reached its maximum response
Concentration significantly (P<0.01) inhibiting cell damage by L-glutamate ([2]; 4 hours): greater than 0.01 μM
Cytoprotection response ([2]; above 1 μM KM-34): greater than 80%
Concentration significantly inhibiting Fe3+/AA-induced POL ([3]; induced by FeCl3 and AA): > 10 µM
Concentration significantly inhibiting spontaneous POL ([3]; spontaneous lipid peroxidation): higher than 0.1 μM
Concentration achieving significant cellular survival against H2O2 ([4]; 150 μM H2O2, 4 hours): higher than 5 μM
% cell survival ([4]; 150 μM H2O2, concentrations higher than 50 μM): ~90%
Cellular survival response ([4]; 150 μM H2O2, from 25 μM KM-34): higher than 50%
Absorbance of KM-34 at absorption maxima 262, 345 and 472 nm in presence of Fe2+ [5]: is modified as the concentration of the ferrous ion increases
